In assay [1] the target is T1, microsomal triglyceride transfer protein (MTP) (Mesocricetus auratus, UniProt P55158).
T1 construct: The supernatant comprising the soluble MTP is dialysed; from tissue; host or cells: golden hamster liver microsomes, deoxycholate-solubilised supernatant
T1 sequence (P55158 19-895): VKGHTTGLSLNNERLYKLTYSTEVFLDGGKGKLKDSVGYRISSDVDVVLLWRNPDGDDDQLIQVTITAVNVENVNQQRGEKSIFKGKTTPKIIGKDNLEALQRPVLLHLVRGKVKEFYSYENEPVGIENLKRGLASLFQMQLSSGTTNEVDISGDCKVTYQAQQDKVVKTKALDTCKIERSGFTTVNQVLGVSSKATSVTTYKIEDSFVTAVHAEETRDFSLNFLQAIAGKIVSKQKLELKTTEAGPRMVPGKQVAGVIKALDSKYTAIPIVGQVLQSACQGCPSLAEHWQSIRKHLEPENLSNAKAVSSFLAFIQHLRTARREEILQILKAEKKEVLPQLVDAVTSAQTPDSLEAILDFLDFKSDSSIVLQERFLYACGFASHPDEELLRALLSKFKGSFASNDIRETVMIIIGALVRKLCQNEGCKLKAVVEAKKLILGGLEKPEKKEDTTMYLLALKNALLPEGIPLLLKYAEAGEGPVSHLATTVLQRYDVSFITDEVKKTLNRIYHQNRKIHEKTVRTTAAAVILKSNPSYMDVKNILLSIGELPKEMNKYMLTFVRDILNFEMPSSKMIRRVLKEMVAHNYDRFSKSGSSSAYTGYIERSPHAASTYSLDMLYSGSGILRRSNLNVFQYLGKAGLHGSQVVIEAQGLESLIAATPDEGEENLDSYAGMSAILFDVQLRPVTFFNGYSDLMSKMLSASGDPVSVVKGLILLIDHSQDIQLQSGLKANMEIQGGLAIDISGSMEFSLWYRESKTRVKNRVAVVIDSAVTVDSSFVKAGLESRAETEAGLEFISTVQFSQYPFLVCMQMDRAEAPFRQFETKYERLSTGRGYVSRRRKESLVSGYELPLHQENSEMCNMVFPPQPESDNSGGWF
Nature of the assay: Inhibition of MTP activity: transfer of [3H]-triolein from donor liposomes to biotinylated LDL, SPA. The assay is classed as biochemical. The note with it: MTP from golden hamster liver; incubation 18-24 hours at 37° C. The method, then:
The inhibition of the activity of microsomal triglyceride transfer protein (MTP) was tested by using the following operating protocol.
The inhibition of MTP activity with a compound can be quantified by observing the inhibition of the transfer of a labelled triglyceride, from a donor particle to an acceptor particle, in the presence of MTP. The procedure for the preparation of MTP is based on the method by Wetterau and Zilversmit (Biochem. Biophys. Acta (1986) 875, 610). A few grams of golden hamster liver are taken and then rinsed several times in a 250 mM sucrose solution at 0° C. All the following steps proceed at +4° C. A homogenate at a concentration of 50% in 250 mM sucrose is prepared using a Teflon mill and then centrifuged for 10 minutes at 10 000×g at +4° C. The supernatant is then centrifuged at 105 000×g for 75 minutes at +4° C. The supernatant is discarded and the microsomal pellet is taken up in 3 ml (per g of starting liver) of Tris/HCl 150 mM pH 8.0. 1-ml aliquot fractions are stored at −80° C. until the time of use.
After thawing a fraction of microsomes (1 ml), 12 ml of refrigerated Tris/HCl 50 mM, KCl 50 mM, MgCl2 5 mM pH 7.4 buffers and 1.2 ml of deoxycholate (0.54% in water) are added. After incubation for 30 minutes at +4° C. with gentle agitation, the suspension is centrifuged at […] for 75 minutes. […]
The reaction mixture is prepared in untreated ½ well white plates (Corning Costar) by addition, in the following order, of: 5 μl of HEPES 50 mM, NaCl 150 mM, BSA 0.1% (w/v), 0.05% sodium azide (w/v), pH 7.4 buffer; 5 μl of liposomes; 5 μl of LDL-biot; 5 μl of test products in DMSO; 5 μl of MTP. After incubation for 18-24 hours at 37° C., the reaction is stopped adding 100 μl of Amersham SPA (Scintillation Proximity Assay) beads coupled to streptavidin, and the radioactivity is counted using a Top Count (Packard) machine at least one hour later. The inhibition of the transfer of the triglycerides with a compound is reflected by a reduction in the transferred radioactivity. […]

Assay [2] concerns apo B secretion in HepG2 cells. Nature of the assay: Inhibition of ApoB secretion in HepG2 cells, sandwich ELISA. The assay is classed as cell-based. The conditions noted are these: 24 hours incubation, ELISA specific for human apo B. The method, then: The activity of a compound according to the invention can be evaluated by measuring the inhibition of apo B secretion in HepG2 cells.
The HepG2 cells (ECACC No. 85011430) are used as model in the study of the in vitro hepatic secretion of lipoproteins (Dixon J. and Ginsberg H., J. Lipid. Res., 1993, 34, 167-179).
The HepG2 cells are cultured in Dulbecco's modified Eagle's medium comprising 10% foetal calf serum (DMEM and FBS-Gibco) in 96-well plates under an atmosphere of 5% carbon dioxide for 24 hours (about 70% confluence).
The test compounds are dissolved at a concentration of 2 or 10 mM in dimethyl sulfoxide (DMSO). Serial dilutions (1:3.16) are made in DMSO and are added (1:200—Robot Multimek Beckman) to the growth medium (200 μL) and then finally incubated for 24 hours in the various wells containing the HepG2 cells.
The 24-hour culture supernatant diluted to 1:5 (phosphate-buffered saline: PBS comprising 1% bovine serum albumin) is tested according to a sandwich-ELISA method specific for human apo B.
The results are expressed in terms of IC50, i.e. the concentration that produces a 50% inhibition of apo B secretion in the HepG2 cells.
(An ELISA detects its analyte on a solid surface through an enzyme-linked reagent.)

`CS(=O)(=O)c1ccc(CNC(=O)C(CCCCn2cc(-c3ccccc3)c3cccnc32)C2CCCCC2)cc1` (stereo not drawn): the IC50 (commonly the concentration that gives 50% inhibition) amounted to 529 nM in assay [1] and 3 nM in assay [2].
Regarding `O=C(NCc1ccncc1)C(CCCCCn1cc(-c2ccccc2)c2cccnc21)C1CCCC1` (stereo not drawn), the half-inhibitory concentration (IC50) in assay [1] was determined as 381 nM; in assay [2], 18 nM.
Regarding `O=C(NCc1ccccc1)C(CCCCn1cc(-c2ccccc2)c2cccnc21)C1CCCCCC1` (stereo not drawn), the IC50 in assay [1] was 175 nM; in assay [2], 15 nM.
